The results in this text go back to patent publication US20240279220A1, “INDOLE COMPOUNDS AND METHODS OF USE” (Genzyme Corporation, priority 2021, published 2024).

For the assay, the system named is NBD1/3D. Put plainly: Aggregation analysis using differential static light scattering (DSLS), NBD1 thermal stability. As to conditions: ΔTagg versus DMSO control; compound at 100 μM. It is filed as binding, Human. A digest of the protocol: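 Thermal stabilisation reported as ΔTagg, i.e. aggregation temperature relative to averaged DMSO wells. Tagg came from the inflection of differential static light scattering imaged 25–70 °C while NBD1 (0.2 mg/ml, Tris pH 7.6 buffer containing ATP, MgCl2, DTT, glycerol) was ramped 1 °C/min.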

In the case of `Cc1c(Oc2ccc(F)c(-c3ncc(C(C)(O)c4cccc(CCC(=O)O)c4)[nH]3)c2)c(F)c(F)c2[nH]ccc12` (stereo not shown) [Example 204, 3-(3-(1-(2-(5-((6,7-difluoro-4-methyl-1H-indol-5-yl)oxy)-2-fluorophenyl)-1H-imidazol-5-yl)-1-hydroxyethyl)phenyl) propanoic acid], the “DSLS NBD1/3D Human Stability delta-T (° C.) @ 100 (μM)” value (“DSLS NBD1/3D Human Stability delta-T” below) is “B (B: 5-10° C.)”.
`Cc1c(Oc2cnc(F)c(-c3ncc(C(C)(O)c4cccc(CCC(=O)O)c4)[nH]3)c2)c(F)cc2[nH]ccc12` (stereo not shown) [Example 207, 3-(3-(1-(2-(2-fluoro-5-((6-fluoro-4-methyl-1H-indol-5-yl)oxy)pyridin-3-yl)-1H-imidazol-5-yl)-1-hydroxyethyl)phenyl) propanoic acid]: the “DSLS NBD1/3D Human Stability delta-T” value is recorded as “B (B: 5-10° C.)”.
Take `Cc1c(Oc2cccc(-c3ncc(C(C)(O)c4cccc(CCS(C)(=O)=O)c4)[nH]3)c2)c(F)cc2[nH]ccc12` (stereo not shown) [Example 208, 1-(2-(3-((6-fluoro-4-methyl-1H-indol-5-yl)oxy)phenyl)-1H-imidazol-5-yl)-1-(3-(2-(methylsulfonyl)ethyl)phenyl)ethan-1-ol]: the “DSLS NBD1/3D Human Stability delta-T” value is on record as “C (C: ≤5° C.)”.
As for `CC(O)(c1cccc(CS(N)(=O)=O)c1)c1cnc(-c2cccc(Oc3c(F)cc4[nH]ccc4c3F)c2)[nH]1` (stereo not shown) [Example 209, (3-(1-(2-(3-((4,6-difluoro-1H-indol-5-yl)oxy)phenyl)-1H-imidazol-5-yl)-1-hydroxyethyl)phenyl) methanesulfonamide], the entry is “B (B: 5-10° C.)”.
As to `CC(O)(c1cccc(/C=C2\SC(=O)NC2=O)c1)c1cnc(-c2cccc(Oc3c(F)cc4[nH]ccc4c3F)c2)[nH]1` (stereo not shown) [Example 210, (Z)-5-(3-(1-(2-(3-((4,6-Difluoro-1H-indol-5-yl)oxy)phenyl)-1H-imidazol-5-yl)-1-hydroxyethyl)benzylidene)thiazolidine-2,4-dione], the “DSLS NBD1/3D Human Stability delta-T” value is reported as “B (B: 5-10° C.)”.
As for `CC(O)(c1cccc(CC2SC(=O)NC2=O)c1)c1cnc(-c2cccc(Oc3c(F)cc4[nH]ccc4c3F)c2)[nH]1` (stereo not shown) [Example 211, 5-(3-(1-(2-(3-((4,6-Difluoro-1H-indol-5-yl)oxy)phenyl)-1H-imidazol-5-yl)-1-hydroxyethyl)benzyl)thiazolidine-2,4-dione], the entry is “B (B: 5-10° C.)”; as for `CC(=O)NS(=O)(=O)Cc1cccc(C(C)(O)c2cnc(-c3cccc(Oc4c(F)cc5[nH]ccc5c4F)c3)[nH]2)c1` (stereo not shown) [Example 212, N-((3-(1-(2-(3-((4,6-Difluoro-1H-indol-5-yl)oxy)phenyl)-1H-imidazol-5-yl)-1-hydroxyethyl)benzyl)sulfonyl)acetamide], “B (B: 5-10° C.)”.
As for `Cc1c(Oc2ccc(F)c(-c3ncc(C(C)c4cccc(CCC(=O)O)c4)[nH]3)c2)c(F)cc2[nH]ccc12` (stereo not shown) [Example 213, 3-(3-(1-(2-(2-Fluoro-5-((6-fluoro-4-methyl-1H-indol-5-yl)oxy)phenyl)-1H-imidazol-5-yl)ethyl)phenyl)propanoic acid], the entry is “B (B: 5-10° C.)”.
On to `C=C(c1cccc(CCC(=O)O)c1)c1cnc(-c2cc(Oc3c(F)cc4[nH]ccc4c3C)ccc2F)[nH]1` [Example 214, 3-(3-(1-(2-(2-Fluoro-5-((6-fluoro-4-methyl-1H-indol-5-yl)oxy)phenyl)-1H-imidazol-5-yl)vinyl)phenyl)propanoic acid], for which the “DSLS NBD1/3D Human Stability delta-T” value is on record as “C (C: ≤5° C.)”.
On to `Cc1nc(-c2cc(Oc3c(F)cc4[nH]ccc4c3C)ccc2F)[nH]c1C(O)c1cccc(CCC(=O)O)c1` (stereo not shown) [Example 217, 3-(3-((2-(2-Fluoro-5-((6-fluoro-4-methyl-1H-indol-5-yl)oxy)phenyl)-4-methyl-1H-imidazol-5-yl)(hydroxy)methyl)phenyl)propanoic acid], for which the “DSLS NBD1/3D Human Stability delta-T” value was “B (B: 5-10° C.)”.
As for `CC(O)(c1cccc(CCC(=O)O)c1)c1c[nH]c(-c2cc(C(O)c3ccc4[nH]ccc4c3)ccc2F)n1` (stereo not shown) [Example 218, 3-(3-(1-(2-(2-Fluoro-5-(hydroxy(1H-indol-5-yl)methyl)phenyl)-1H-imidazol-4-yl)-1-hydroxyethyl)phenyl)propanoic acid], the entry is “B (B: 5-10° C.)”; as for `C[C@@H](O)C(=O)N1Cc2ccc(C(C)(O)c3cnc(-c4cccc(Oc5c(F)cc6[nH]ccc6c5F)c4)[nH]3)cc2C1` (stereo partly drawn) [Example 219, (2R)-1-(5-(1-(2-(3-((4,6-Difluoro-1H-indol-5-yl)oxy)phenyl)-1H-imidazol-5-yl)-1-hydroxyethyl)isoindolin-2-yl)-2-hydroxypropan-1-one], “C (C: ≤5° C.)”.
Next, `CC(O)(c1cc(F)cc(CCC(=O)O)c1)c1c[nH]c(-c2cc(Oc3c(F)cc4[nH]ccc4c3F)ccc2F)n1` (stereo not shown) [Example 220, 3-(3-(1-(2-(5-((4,6-Difluoro-1H-indol-5-yl)oxy)-2-fluorophenyl)-1H-imidazol-4-yl)-1-hydroxyethyl)-5-fluorophenyl)propanoic acid]: “B (B: 5-10° C.)”; `CC(=O)CCc1cc(F)cc(C(C)(O)c2c[nH]c(-c3cc(Oc4c(F)cc5[nH]ccc5c4F)ccc3F)n2)c1` (stereo not shown) [Example 221, 4-(3-(1-(2-(5-((4,6-Difluoro-1H-indol-5-yl)oxy)-2-fluorophenyl)-1H-imidazol-4-yl)-1-hydroxyethyl)-5-fluorophenyl)butan-2-one]: “C (C: ≤5° C.)”; `Cc1c(Oc2cccc(-c3ncc(C(C)(O)c4cccc(C5CC5C(=O)O)c4)[nH]3)c2)ccc2[nH]ccc12` (stereo not shown) [Example 222, 2-(3-(1-hydroxy-1-(2-(3-((4-methyl-1H-indol-5-yl)oxy)phenyl)-1H-imidazol-5-yl)ethyl)phenyl)cyclopropane-1-carboxylic acid]: “B (B: 5-10° C.)”.
Next, `CCC(O)(c1cccc(CCC(=O)O)c1)c1cnc(-c2cc(Oc3c(F)cc4[nH]ccc4c3C)ccc2F)[nH]1` (stereo not shown) [Example 223, 3-(3-(1-(2-(2-fluoro-5-((6-fluoro-4-methyl-1H-indol-5-yl)oxy)phenyl)-1H-imidazol-5-yl)-1-hydroxypropyl)phenyl) propanoic acid]: “B (B: 5-10° C.)”; `Cc1c(Oc2ccc(F)c(-c3ncc(C(O)(c4cccc(CCC(=O)O)c4)C(C)C)[nH]3)c2)c(F)cc2[nH]ccc12` (stereo not shown) [Example 224, 3-(3-(1-(2-(2-fluoro-5-((6-fluoro-4-methyl-1H-indol-5-yl)oxy)phenyl)-1H-imidazol-5-yl)-1-hydroxy-2-methylpropyl)phenyl) propanoic acid]: “B (B: 5-10° C.)”; `CCCC(O)(c1cccc(CCC(=O)O)c1)c1c[nH]c(-c2cc(Oc3c(F)cc4[nH]ccc4c3C)ccc2F)n1` (stereo not shown) [Example 225, 3-(3-(1-(2-(2-fluoro-5-((6-fluoro-4-methyl-1H-indol-5-yl)oxy)phenyl)-1H-imidazol-4-yl)-1-hydroxybutyl)phenyl) propanoic acid]: “B (B: 5-10° C.)”.
In the case of `CCCCC(O)(c1cccc(CCC(=O)O)c1)c1c[nH]c(-c2cc(Oc3c(F)cc4[nH]ccc4c3C)ccc2F)n1` (stereo not shown) [Example 226, 3-(3-(1-(2-(2-fluoro-5-((6-fluoro-4-methyl-1H-indol-5-yl)oxy)phenyl)-1H-imidazol-4-yl)-1-hydroxypentyl)phenyl) propanoic acid], the “DSLS NBD1/3D Human Stability delta-T” value is “B (B: 5-10° C.)”.
As for `CC1(C)COC(c2cccc(CCC(=O)O)c2)(c2cnc(-c3cc(Oc4c(F)c(F)c5[nH]ccc5c4F)ccc3F)[nH]2)OC1` [Example 227, 3-(3-(2-(2-(2-Fluoro-5-((4,6,7-trifluoro-1H-indol-5-yl)oxy)phenyl)-1H-imidazol-5-yl)-5,5-dimethyl-1,3-dioxan-2-yl)phenyl)propanoic acid], the entry is “A (A: T ≥ 10° C.)”; as for `O=C(O)CCc1cccc(C2(c3cnc(-c4cc(Oc5c(F)cc6[nH]ccc6c5F)ccc4F)[nH]3)OCCCO2)c1` [Example 228, 3-(3-(2-(2-(5-((4,6-difluoro-1H-indol-5-yl)oxy)-2-fluorophenyl)-1H-imidazol-5-yl)-1,3-dioxan-2-yl)phenyl)propanoic acid], “A (A: T ≥ 10° C.)”.
With `O=C(O)CCc1cccc(C2(c3cnc(-c4cc(Oc5c(F)cc6[nH]ccc6c5F)ccc4F)[nH]3)OCCO2)c1` [Example 229, 3-(3-(2-(2-(5-((4,6-difluoro-1H-indol-5-yl)oxy)-2-fluorophenyl)-1H-imidazol-5-yl)-1,3-dioxolan-2-yl)phenyl)propanoic acid], the “DSLS NBD1/3D Human Stability delta-T” value was “A (A: T ≥ 10° C.)”.
As for `Cc1c(Oc2ccc(F)c(-c3ncc(C4(c5cccc(CCC(=O)O)c5)OCC(C)(C)CO4)[nH]3)c2)c(F)cc2[nH]ccc12` [Example 230, 3-(3-(2-(2-(2-fluoro-5-((6-fluoro-4-methyl-1H-indol-5-yl)oxy)phenyl)-1H-imidazol-5-yl)-5,5-dimethyl-1,3-dioxan-2-yl)phenyl)propanoic acid], the entry is “A (A: T ≥ 10° C.)”; as for `Cc1c(Oc2ccc(F)c(-c3nc(C4(c5cccc(CCC(=O)O)c5)OCCCO4)c[nH]3)c2)c(F)cc2[nH]ccc12` [Example 231, 3-(3-(2-(2-(2-fluoro-5-((6-fluoro-4-methyl-1H-indol-5-yl)oxy)phenyl)-1H-imidazol-4-yl)-1,3-dioxan-2-yl)phenyl)propanoic acid], “A (A: T ≥ 10° C.)”.
Next, `Cc1c(Oc2ccc(F)c(-c3nc(C4(c5cccc(CCC(=O)O)c5)OCCO4)c[nH]3)c2)c(F)cc2[nH]ccc12` [Example 232, 3-(3-(2-(2-(2-fluoro-5-((6-fluoro-4-methyl-1H-indol-5-yl)oxy)phenyl)-1H-imidazol-4-yl)-1,3-dioxolan-2-yl)phenyl)propanoic acid]: “B (B: 5-10° C.)”.
